Earlier results on two molecules are cited in patent US20230390251A1, “METHODS OF TREATING RIBONUCLEOTIDE REDUCTASE-RELATED DISEASES WITH A RIBONUCLEOTIDE REDUCTASE INHIBITOR” (TAIHO PHARMACEUTICAL CO., LTD., priority 2020, published 2023).

The conditions of series [1]: from the literature (NPL 10); off-target effect on Fe ion-containing proteins; cited from earlier work.
Series [2] has as its target T1, Ribonucleotide reductase (RNR) (Homo sapiens, UniProt P23921+P31350).
T1 sequence (P23921 1-792): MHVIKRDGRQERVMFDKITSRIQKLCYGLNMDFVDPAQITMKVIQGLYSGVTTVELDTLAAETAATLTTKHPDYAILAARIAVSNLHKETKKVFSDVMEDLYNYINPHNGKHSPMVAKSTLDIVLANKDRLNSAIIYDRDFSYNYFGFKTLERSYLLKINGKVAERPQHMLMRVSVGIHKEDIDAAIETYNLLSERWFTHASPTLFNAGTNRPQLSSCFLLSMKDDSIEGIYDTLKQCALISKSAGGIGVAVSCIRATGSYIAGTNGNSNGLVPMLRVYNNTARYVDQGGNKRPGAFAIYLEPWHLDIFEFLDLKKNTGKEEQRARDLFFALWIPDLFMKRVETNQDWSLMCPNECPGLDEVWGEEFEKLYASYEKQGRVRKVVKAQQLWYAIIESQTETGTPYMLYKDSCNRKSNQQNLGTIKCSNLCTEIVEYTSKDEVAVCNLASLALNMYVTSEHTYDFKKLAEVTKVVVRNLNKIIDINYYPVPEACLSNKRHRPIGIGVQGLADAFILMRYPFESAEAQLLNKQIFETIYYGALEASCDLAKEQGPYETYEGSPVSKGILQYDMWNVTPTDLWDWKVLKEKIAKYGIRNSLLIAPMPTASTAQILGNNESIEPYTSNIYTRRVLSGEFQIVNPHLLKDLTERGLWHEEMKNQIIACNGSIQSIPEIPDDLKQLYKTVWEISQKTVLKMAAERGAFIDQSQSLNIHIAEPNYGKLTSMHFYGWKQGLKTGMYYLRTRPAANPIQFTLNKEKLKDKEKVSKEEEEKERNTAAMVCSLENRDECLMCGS
T1 sequence (P31350 1-389): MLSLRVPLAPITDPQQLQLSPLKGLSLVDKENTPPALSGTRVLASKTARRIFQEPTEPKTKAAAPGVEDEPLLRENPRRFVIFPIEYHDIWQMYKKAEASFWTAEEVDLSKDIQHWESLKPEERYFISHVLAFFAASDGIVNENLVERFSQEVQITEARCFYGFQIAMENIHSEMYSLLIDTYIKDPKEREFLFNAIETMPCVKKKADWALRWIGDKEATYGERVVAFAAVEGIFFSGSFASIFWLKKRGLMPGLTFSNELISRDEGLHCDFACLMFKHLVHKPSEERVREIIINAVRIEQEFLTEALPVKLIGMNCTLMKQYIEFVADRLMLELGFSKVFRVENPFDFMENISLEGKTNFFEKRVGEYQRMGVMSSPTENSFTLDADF
The following applies: from the literature (NPL 7; PL 1); cited from earlier work.

Take `NC(=S)NN=Cc1ncccc1N` [Compound 3-AP, 3-aminopyridine-2-carboxaldehyde thiosemicarbazone]: the “side effects in clinical cases” value in series [1] is “side effects such as hypoxia, dyspnea, methemoglobinemia”.

For `NC(=O)NO` [HU, hydroxyurea, reference compound], the RNR inhibitory activity entry in series [2] is recorded as “weak”.
